The values that follow come from US8871753B2, “Macrocyclic compounds and their use as kinase inhibitors” (Incyte Corporation, priority 2008, dated 2014).

Structures can show the parent of a compound that is named as a salt. Where two headings read alike, the source gives them in different places. Bounds are passed on as bounds.

What all share (format): biochemical
The target of experiment [1] is T1, human JAK1 (a.a. 837-1142) (Homo sapiens, UniProt P23458).
T1 construct: human JAK1 (a.a. 837-1142); His tag (N); made in house; host or cells: insect cells (baculovirus)
Description: In vitro JAK kinase assay (HTRF, phosphorylation of a biotinylated peptide), JAK1. The following applies: read-out: JAK1 IC50. In short, it runs like this:
(§1)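 Kinase reactions ran at room temperature for 1 h with ATP matched per isoform (JAK1 90 μM, JAK2 30 μM, JAK3 3 μM). After an EDTA stop, the phosphorylated biotin-peptide was read by HTRF using Eu-Py20 and SA-APC after 40 min binding.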
A general note: Time-resolved FRET reads energy transfer from a long-lived donor to a nearby acceptor.

For experiment [2], the target named is T2, human JAK2 (a.a. 828-1132) (Homo sapiens, UniProt O60674).
T2 construct: JAK2 (a.a. 828-1132); His tag (N); made in house; host or cells: insect cells (baculovirus)
The experiment can be described thus: In vitro JAK kinase assay (HTRF, phosphorylation of a biotinylated peptide), JAK2. In short, it runs like this:
as §1

Experiment [3] concerns the target T3, human JAK3 (a.a. 781-1124) (Homo sapiens, UniProt P52333).
T3 construct: JAK3 (a.a. 781-1124); His tag (N); made in house; host or cells: insect cells (baculovirus)
The experiment can be described thus: In vitro JAK kinase assay (HTRF, phosphorylation of a biotinylated peptide), JAK3. In short, it runs like this:
as §1

The target in another experiment is TYK2 (Homo sapiens, UniProt P29597). The experiment can be described thus: TYK2 kinase inhibition (Table A1).
Experiment [4] deals with T4, Recombinant Human Anaplastic Lymphoma Kinase (Homo sapiens, UniProt Q9UM73).
T4 construct: purchased Invitrogen, Carlsbad, Calif
Description: ALK HTRF kinase assay. In short, it runs like this: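 Readout was HTRF between a Eu-W1024 anti-phosphotyrosine antibody and streptavidin-APC bound to biotinylated peptide phosphorylated by recombinant human ALK. IC50 values came from a four-parameter logistic fit.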

[5] abbreviates: compound at a concentration of 500 nM or 1 mM (not specified), cells shown as percentage.
Setting [6] is: method AA1 (90 μM ATP) or AA2 (1000 μM ATP), not stated per value.
Setting [7] is: method AA1 (30 μM ATP) or AA2 (1000 μM ATP), not stated per value.
[8] abbreviates: method AA1 (3 μM ATP) or AA2 (1000 μM ATP), not stated per value.
The mark [9] stands for this setting: compound at 500 nM or 1 mM, 90 μM ATP.
[10] abbreviates: Table B1, cells without percent sign.

TYK2, sequence (P29597 whole entry): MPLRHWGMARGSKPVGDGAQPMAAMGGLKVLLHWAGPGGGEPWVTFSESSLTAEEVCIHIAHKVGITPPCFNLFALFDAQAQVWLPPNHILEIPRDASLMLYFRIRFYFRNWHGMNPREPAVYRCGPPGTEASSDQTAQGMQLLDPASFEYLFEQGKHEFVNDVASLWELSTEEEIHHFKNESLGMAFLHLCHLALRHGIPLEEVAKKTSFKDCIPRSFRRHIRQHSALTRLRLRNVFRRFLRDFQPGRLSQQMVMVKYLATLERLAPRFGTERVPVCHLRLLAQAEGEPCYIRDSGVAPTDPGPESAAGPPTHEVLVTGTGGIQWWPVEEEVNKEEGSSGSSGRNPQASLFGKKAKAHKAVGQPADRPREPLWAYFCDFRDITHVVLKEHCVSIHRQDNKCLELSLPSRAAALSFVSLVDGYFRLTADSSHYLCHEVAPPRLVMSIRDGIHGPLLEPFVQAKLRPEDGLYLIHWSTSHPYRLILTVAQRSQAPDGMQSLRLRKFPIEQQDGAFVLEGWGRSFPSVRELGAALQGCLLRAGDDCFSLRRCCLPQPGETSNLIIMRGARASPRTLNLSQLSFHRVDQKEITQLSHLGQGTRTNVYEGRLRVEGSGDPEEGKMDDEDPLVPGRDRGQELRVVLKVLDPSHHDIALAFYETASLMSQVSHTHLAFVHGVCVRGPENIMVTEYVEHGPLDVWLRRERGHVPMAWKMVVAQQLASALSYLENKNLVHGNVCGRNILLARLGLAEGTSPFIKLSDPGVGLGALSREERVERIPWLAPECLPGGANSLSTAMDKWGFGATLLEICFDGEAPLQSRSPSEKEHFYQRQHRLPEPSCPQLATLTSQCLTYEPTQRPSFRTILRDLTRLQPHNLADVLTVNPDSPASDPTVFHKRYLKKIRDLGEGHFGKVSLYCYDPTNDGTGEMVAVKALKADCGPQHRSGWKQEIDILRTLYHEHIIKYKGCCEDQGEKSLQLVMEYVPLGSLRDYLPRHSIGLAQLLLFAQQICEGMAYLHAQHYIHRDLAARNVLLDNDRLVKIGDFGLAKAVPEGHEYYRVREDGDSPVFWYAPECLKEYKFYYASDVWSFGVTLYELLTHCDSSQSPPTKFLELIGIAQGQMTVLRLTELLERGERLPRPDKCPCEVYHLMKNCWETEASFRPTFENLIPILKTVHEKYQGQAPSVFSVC
T4 sequence (Q9UM73 19-1620): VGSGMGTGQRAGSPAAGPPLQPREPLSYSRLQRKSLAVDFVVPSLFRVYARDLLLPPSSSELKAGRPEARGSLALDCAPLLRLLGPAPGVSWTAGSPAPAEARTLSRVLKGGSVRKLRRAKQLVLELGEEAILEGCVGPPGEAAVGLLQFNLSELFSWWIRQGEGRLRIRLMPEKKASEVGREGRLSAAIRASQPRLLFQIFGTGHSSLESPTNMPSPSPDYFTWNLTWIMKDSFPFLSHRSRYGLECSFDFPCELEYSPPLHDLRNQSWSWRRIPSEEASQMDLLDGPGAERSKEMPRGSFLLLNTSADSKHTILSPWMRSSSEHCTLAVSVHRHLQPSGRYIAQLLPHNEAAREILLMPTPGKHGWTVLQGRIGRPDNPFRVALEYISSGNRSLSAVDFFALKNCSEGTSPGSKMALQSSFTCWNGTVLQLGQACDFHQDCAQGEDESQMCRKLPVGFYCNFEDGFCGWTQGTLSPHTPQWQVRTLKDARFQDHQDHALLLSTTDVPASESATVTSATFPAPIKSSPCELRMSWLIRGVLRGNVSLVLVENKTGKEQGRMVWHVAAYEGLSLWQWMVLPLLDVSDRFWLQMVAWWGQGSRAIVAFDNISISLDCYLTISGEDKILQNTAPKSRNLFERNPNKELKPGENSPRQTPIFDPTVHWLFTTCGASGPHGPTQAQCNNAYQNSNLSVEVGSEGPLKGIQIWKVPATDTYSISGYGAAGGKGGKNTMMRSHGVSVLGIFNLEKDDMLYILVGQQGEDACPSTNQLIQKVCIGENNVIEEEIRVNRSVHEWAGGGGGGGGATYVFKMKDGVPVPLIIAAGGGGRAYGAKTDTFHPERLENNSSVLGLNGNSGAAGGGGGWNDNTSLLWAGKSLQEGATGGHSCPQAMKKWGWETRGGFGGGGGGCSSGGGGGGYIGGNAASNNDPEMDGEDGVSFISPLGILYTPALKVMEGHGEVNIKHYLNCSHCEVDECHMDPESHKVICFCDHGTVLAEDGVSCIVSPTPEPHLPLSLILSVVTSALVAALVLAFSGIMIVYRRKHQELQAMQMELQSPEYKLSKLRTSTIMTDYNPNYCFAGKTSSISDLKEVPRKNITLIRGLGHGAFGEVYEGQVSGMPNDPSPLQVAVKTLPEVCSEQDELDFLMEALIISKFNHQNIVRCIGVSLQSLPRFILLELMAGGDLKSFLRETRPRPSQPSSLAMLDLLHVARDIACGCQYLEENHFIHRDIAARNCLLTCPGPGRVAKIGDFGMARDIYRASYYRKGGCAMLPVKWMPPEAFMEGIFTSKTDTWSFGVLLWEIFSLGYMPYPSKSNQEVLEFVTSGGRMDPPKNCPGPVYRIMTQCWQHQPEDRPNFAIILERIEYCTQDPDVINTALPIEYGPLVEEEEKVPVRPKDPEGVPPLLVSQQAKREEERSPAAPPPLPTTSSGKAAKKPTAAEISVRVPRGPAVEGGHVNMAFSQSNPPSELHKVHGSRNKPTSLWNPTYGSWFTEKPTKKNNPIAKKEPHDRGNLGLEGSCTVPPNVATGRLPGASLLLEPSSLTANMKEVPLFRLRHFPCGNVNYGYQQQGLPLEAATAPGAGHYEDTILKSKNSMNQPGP
T2 sequence (O60674 828-1132): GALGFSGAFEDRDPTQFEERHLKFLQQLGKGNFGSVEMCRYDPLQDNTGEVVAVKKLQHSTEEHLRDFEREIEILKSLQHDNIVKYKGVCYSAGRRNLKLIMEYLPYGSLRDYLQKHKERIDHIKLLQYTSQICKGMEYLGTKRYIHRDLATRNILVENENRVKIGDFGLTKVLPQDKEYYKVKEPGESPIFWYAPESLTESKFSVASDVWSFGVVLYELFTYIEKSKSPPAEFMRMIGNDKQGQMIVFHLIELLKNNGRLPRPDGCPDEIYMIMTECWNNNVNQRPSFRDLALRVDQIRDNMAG
T3 sequence (P52333 781-1124): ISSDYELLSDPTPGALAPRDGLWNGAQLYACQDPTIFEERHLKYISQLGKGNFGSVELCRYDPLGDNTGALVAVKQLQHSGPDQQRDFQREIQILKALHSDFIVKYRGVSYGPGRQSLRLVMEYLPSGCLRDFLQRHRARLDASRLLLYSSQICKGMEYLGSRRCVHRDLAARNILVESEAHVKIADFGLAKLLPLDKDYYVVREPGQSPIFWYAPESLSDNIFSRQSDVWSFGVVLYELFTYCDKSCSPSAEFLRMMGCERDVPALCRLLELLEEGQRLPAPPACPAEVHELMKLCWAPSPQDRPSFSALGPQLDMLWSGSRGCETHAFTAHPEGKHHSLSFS
T1 sequence (P23458 849-1154): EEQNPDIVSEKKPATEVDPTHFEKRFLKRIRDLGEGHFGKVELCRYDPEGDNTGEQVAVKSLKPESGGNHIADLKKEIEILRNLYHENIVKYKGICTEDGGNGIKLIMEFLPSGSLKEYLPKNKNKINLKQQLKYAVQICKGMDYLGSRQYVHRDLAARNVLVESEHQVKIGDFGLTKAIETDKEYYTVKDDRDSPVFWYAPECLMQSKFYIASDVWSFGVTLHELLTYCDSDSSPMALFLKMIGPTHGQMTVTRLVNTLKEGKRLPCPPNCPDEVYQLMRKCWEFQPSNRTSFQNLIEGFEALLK

As usually defined, the IC50 is the concentration that inhibits the measured activity by half. Regarding `CCc1cccc(NC(=O)Nc2ccc3cc2CCc2cccc(c2)Nc2ncc(Cl)c(n2)N3)c1` [Example B99, N-[6-Chloro-2,4,8,22-tetraazatetracyclo[14.3.1.1(3,7).1(9,13)]docosa-1(20), 3(22),4,6,9(21),10,12,16,18-nonaen-12-yl]-N′-(3-ethylphenyl)urea trifluoroacetate], the IC50 amounted to 7 nM in experiment [1] (Table B1), 20 nM in experiment [2] (Table B1), 151 nM in experiment [3] (Table B1) and 33 nM at TYK2 (Table B1). Further, in experiment [4] (setting [5]), the “ALK % of inhibition at a concentration of 500 nM or 1 mM” value (from here on “ALK % of inhibition”) was 37%.

On to `Clc1cnc2nc1Nc1cccc(c1)CCSc1cccc(c1)N2` [Example D19, 6-Chloro-16-thia-2,4,8,23-tetraazatetracyclo[15.3.1.1(3,7).1(9,13)]tricosa-1(21),3(23),4,6,9(22),10,12,17,19-nonaene hydrochloride], for which the IC50 in experiment [1] (Table D1) stood at 150 nM; in experiment [2] (Table D1) it was 16 nM; in experiment [3] (Table D1), 39 nM; on TYK2 (Table D1), 149 nM; in experiment [4] (Table D1, 90 μM ATP) it was 562 nM.

As to `N#Cc1ccc(C(F)(F)F)cc1N1CCC(CC(=O)Nc2ccc3cc2CCc2cncc(c2)Nc2ncc(Cl)c(n2)N3)CC1` [Example A237, N-[6-Chloro-2,4,8,18,22-pentaazatetracyclo[14.3.1.1(3,7).1(9,13)]docosa-1(20),3(22),4,6,9(21),10,12,16,18-nonaen-12-yl]-2-{1-[2-cyano-5-(trifluoromethyl)phenyl]piperidin-4-yl}acetamide tris(trifluoroacetate)], the IC50 is 90 nM in experiment [1] (setting [6]), over 400 nM in experiment [2] (setting [7]), over 400 nM in experiment [3] (setting [8]) and over 400 nM against TYK2. The “ALK % of inhibition” value in experiment [4] (setting [9]) is given as 5.9%.

Regarding `Cc1nccc(N2CCC(CC(=O)Nc3ccc4cc3CCc3cncc(c3)Nc3ncc(Cl)c(n3)N4)CC2)n1` [Example A182, N-[6-Chloro-2,4,8,18,22-pentaazatetracyclo[14.3.1.1(3,7).1(9,13)]docosa-1(20),3(22),4,6,9(21),10,12,16,18-nonaen-12-yl]-2-[1-(2-methylpyrimidin-4-yl)piperidin-4-yl]acetamide tris(trifluoroacetate)], the IC50 in experiment [1] (setting [6]) was 48 nM; in experiment [2] (setting [7]), over 200 nM; in experiment [3] (setting [8]) it was over 200 nM; at TYK2, over 200 nM. Moreover, the “ALK % of inhibition” value in experiment [4] (setting [9]) turned out to be 32%.

On to `CC(C)(C)NC(=O)Nc1ccc2cc1CCc1cccc(c1)Nc1ncc(Cl)c(n1)N2` [Example B87, N-(tert-Butyl)-N′-[6-chloro-2,4,8,22-tetraazatetracyclo[14.3.1.1(3,7).1(9,13)]docosa-1(20),3(22),4,6,9(21),10,12,16,18-nonaen-12-yl]urea trifluoroacetate], for which the IC50 in experiment [1] (Table B1) is 5.3 nM; in experiment [2] (Table B1), 4.5 nM; in experiment [3] (Table B1), 42 nM; at TYK2 (Table B1), 16 nM; in experiment [4] (setting [10]), over 1000 nM.

For `O=C(NCCNC(=O)c1ccccn1)Nc1ccc2cc1CCc1cccc(c1)Nc1ncc(Cl)c(n1)N2` [Example B190, N-{2-[({[6-Chloro-2,4,8,22-tetraazatetracyclo[14.3.1.1(3,7).1(9,13)]docosa-1(20),3(22),4,6,9(21),10,12,16,18-nonaen-12-yl]amino}carbonyl)amino]ethyl}pyridine-2-carboxamide trifluoroacetate], the IC50 in experiment [1] (Table B1) worked out at 5 nM; in experiment [2] (Table B1) it was 10 nM; in experiment [3] (Table B1) it was 61 nM; against TYK2 (Table B1), 19 nM. In experiment [4] (setting [5]), the “ALK % of inhibition” value was determined as 11%.

`NS(=O)(=O)N1CCC(C(=O)Nc2ccc3cc2CCc2cccc(c2)Nc2ncc(Cl)c(n2)N3)CC1` [Example A72, 1-(Aminosulfonyl)-N-[6-chloro-2,4,8,22-tetraazatetracyclo[14.3.1.1(3,7).1(9,13)]docosa-1(20),3(22),4,6,9(21),10,12,16,18-nonaen-12-yl]piperidine-4-carboxamide trifluoroacetate]: the IC50 is 18 nM in experiment [1] (setting [6]), 3.7 nM in experiment [2] (setting [7]), 10 nM in experiment [3] (setting [8]) and 16 nM against TYK2. Also, the “ALK % of inhibition” value in experiment [4] (setting [9]) amounted to 34%.

Turning to `CCNC(=O)N1CCN(C(=O)COc2ccc3cc2CCc2cccc(c2)Nc2ncc(Cl)c(n2)N3)CC1` [Example A12, trifluoroacetate], the IC50 is 9.4 nM in experiment [1] (setting [6]), 11 nM in experiment [2] (setting [7]), 65 nM in experiment [3] (setting [8]) and 30 nM against TYK2. Also, the “ALK % of inhibition” value in experiment [4] (setting [9]) was 17%.

Turning to `O=C(CC1CCN(C(=O)c2ccc(F)cc2)CC1)Nc1ccc2cc1CCc1cncc(c1)Nc1ncc(Cl)c(n1)N2` [Example A193, N-[6-Chloro-2,4,8,18,22-pentaazatetracyclo[14.3.1.1(3,7).1(9,13)]docosa-1(20),3(22),4,6,9(21),10,12,16,18-nonaen-12-yl]-2-[1-(4-fluorobenzoyl)piperidin-4-yl]acetamide bis(trifluoroacetate)], the IC50 is 12 nM in experiment [1] (setting [6]), over 200 nM in experiment [2] (setting [7]), over 200 nM in experiment [3] (setting [8]) and over 200 nM on TYK2. Also, the “ALK % of inhibition” value in experiment [4] (setting [9]) stood at 31%.

As for `CC(C)(C)OC(=O)N1CC[C@H](NCc2ccc3cc2CCc2cccc(c2)Nc2ncc(Cl)c(n2)N3)C1` [Example B220, tert-Butyl (3S)-3-({[6-chloro-2,4,8,22-tetraazatetracyclo[14.3.1.1(3,7).1(9,13)]docosa-1(20),3(22),4,6,9(21),10,12,16,18-nonaen-12-yl]methyl}amino)pyrrolidine-1-carboxylate bis(trifluoroacetate)], the IC50 in experiment [1] (Table B1) was 7.4 nM; in experiment [2] (Table B1), 12 nM; in experiment [3] (Table B1) it was 36 nM; at TYK2 (Table B1), 28 nM. Further, the “ALK % of inhibition” value in experiment [4] (setting [5]) is listed as 25%.

With `Clc1cnc2nc1Nc1cccc(c1)CSc1cccc(c1)N2` [Example D2, 6-Chloro-15-thia-2,4,8,22-tetraazatetracyclo[14.3.1.1(3,7).1(9,13)]docosa-1(20),3(22),4,6,9(21),10,12,16,18-nonaene trifluoroacetate], the IC50 in experiment [1] (Table D1) amounted to 19 nM; in experiment [2] (Table D1), 7.3 nM; in experiment [3] (Table D1), 13 nM; against TYK2 (Table D1) it was 25 nM; in experiment [4] (Table D1, 90 μM ATP) it was 774 nM.

Consider `O=C(Nc1ccc2cc1CCc1cccc(c1)Nc1ncc(Cl)c(n1)N2)C1CCNCC1` [Example A28, N-[6-Chloro-2,4,8,22-tetraazatetracyclo[14.3.1.1(3,7).1(9,13)]docosa-1(20), 3(22),4,6,9(21),10,12,16,18-nonaen-12-yl]piperidine-4-carboxamide bis(trifluoroacetate)], for which the IC50 in experiment [1] (setting [6]) turned out to be 56 nM; in experiment [2] (setting [7]), 61 nM; in experiment [3] (setting [8]) it was 99 nM; on TYK2, 175 nM. In addition, in experiment [4] (setting [9]), the “ALK % of inhibition” value amounted to 30%.

Regarding `O=C(Nc1ccc2cc1CCc1cccc(c1)Nc1ncc(Cl)c(n1)N2)c1cccc(Cl)c1` [Example B42, 3-Chloro-N-[6-chloro-2,4,8,22-tetraazatetracyclo[14.3.1.1(3,7).1(9,13)]docosa-1(20),3(22),4,6,9(21),10,12,16,18-nonaen-12-yl]benzamide hydrochloride], the IC50 in experiment [1] (Table B1) worked out at 1.7 nM; in experiment [2] (Table B1), 0.75 nM; in experiment [3] (Table B1), 7 nM; against TYK2 (Table B1), 3.9 nM; in experiment [4] (setting [10]) it was 310 nM.

Regarding `O=C(Cc1ccccc1)Nc1cc2cc(c1)OCCSc1cccc(c1)Nc1nc(ncc1Cl)N2` [Example D64, trifluoroacetate], the IC50 in experiment [1] (Table D1) was found to be 3.8 nM; in experiment [2] (Table D1) it was 0.2 nM; in experiment [3] (Table D1), 8.4 nM; against TYK2 (Table D1) it was 3.7 nM; in experiment [4] (Table D1, 90 μM ATP), 450 nM.

`Clc1cnc2nc1Nc1cccc(c1)/C=C\c1cccc(c1)N2` [Example A1, (14Z)-6-Chloro-2,4,8,22-tetraazatetracyclo[14.3.1.1(3,7).1(9,13)]docosa-1(20),3(22),4,6,9(21),10,12,14,16,18-decaene trifluoroacetate]: the IC50 in experiment [1] (setting [6]) was found to be 6 nM; in experiment [2] (setting [7]), 2.7 nM; in experiment [3] (setting [8]) it was 8.5 nM; on TYK2, 4.7 nM; in experiment [4] (90 μM ATP), 415 nM.

Turning to `Nc1nc(C(=O)N2CCC(CC(=O)Nc3ccc4cc3CCc3cncc(c3)Nc3ncc(Cl)c(n3)N4)CC2)cs1` [Example A217, 2-{1-[(2-Amino-1,3-thiazol-4-yl)carbonyl]piperidin-4-yl}-N-[6-chloro-2,4,8,18,22-pentaazatetracyclo[14.3.1.1(3,7).1(9,13)]docosa-1(20),3(22),4,6,9(21),10,12,16,18-nonaen-12-yl]acetamide tris(trifluoroacetate)], the IC50 was 4.2 nM in experiment [1] (setting [6]), 68 nM in experiment [2] (setting [7]), over 200 nM in experiment [3] (setting [8]) and 55 nM on TYK2. The “ALK % of inhibition” value in experiment [4] (setting [9]) was 23%.
